{
  "source": "paper PMC8994207",
  "about": "(Journal of medicinal chemistry, 2021)",
  "key": {"[1]": {"conditions": "cited from earlier work"}, "OX1R": {"test_system": "OX1R", "conditions": "read-out: EC50 at OX1R; weak agonist of both OX receptors; cited from earlier work"}, "OX2R": {"test_system": "OX2R", "conditions": "read-out: EC50 at OX2R; weak agonist of both OX receptors; cited from earlier work"}, "rats": {"test_system": "rats", "conditions": "EEG changes, locomotor activity, startle response latency; cited from earlier work"}, "mice": {"test_system": "mice", "conditions": "cited from earlier work"}, "human OX1R": {"target": "T1, human OX1R (Homo sapiens, UniProt O43613)", "T1 sequence (O43613 1-425)": "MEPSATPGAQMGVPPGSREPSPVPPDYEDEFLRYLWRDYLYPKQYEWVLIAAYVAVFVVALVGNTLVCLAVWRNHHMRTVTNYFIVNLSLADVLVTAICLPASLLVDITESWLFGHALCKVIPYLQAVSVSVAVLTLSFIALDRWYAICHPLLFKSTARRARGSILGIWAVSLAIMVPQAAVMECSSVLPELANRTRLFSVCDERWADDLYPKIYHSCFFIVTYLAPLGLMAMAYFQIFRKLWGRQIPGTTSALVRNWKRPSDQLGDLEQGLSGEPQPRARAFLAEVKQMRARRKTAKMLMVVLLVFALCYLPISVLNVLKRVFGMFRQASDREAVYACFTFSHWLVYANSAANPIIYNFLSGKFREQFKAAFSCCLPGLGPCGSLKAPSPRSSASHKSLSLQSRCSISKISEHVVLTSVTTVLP", "assay": "OX1R calcium mobilization assay", "conditions": "for agonist activity at OX1R (in words): calcium mobilization"}, "human OX2R": {"target": "T2, human OX2R (Homo sapiens, UniProt O43614)", "T2 sequence (O43614 1-444)": "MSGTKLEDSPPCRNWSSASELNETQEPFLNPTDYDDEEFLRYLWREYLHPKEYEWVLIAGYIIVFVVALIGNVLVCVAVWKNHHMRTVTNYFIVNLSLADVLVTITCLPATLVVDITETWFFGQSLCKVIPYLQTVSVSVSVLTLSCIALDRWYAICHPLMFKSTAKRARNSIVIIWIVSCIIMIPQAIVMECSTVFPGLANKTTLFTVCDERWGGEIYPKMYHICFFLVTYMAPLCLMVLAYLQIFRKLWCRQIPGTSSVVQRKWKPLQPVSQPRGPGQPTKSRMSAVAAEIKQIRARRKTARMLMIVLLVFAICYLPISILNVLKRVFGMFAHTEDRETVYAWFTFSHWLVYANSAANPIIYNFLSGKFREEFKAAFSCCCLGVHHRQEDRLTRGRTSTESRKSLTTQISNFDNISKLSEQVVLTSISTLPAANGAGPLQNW", "assay": "OX2R calcium mobilization assay", "conditions": "for agonist activity at OX2R (in words): calcium mobilization"}, "12-month old mice": {"test_system": "12-month old mice", "assay": "Sleep modulation study, continuous EEG/EMG recordings", "assay_type": "in vivo"}, "[2]": {"conditions": "i.c.v. 30, 100, 300 nmol, light phase, up to 3 h post injection"}, "[3]": {"conditions": "i.p. 40 and 60 mg/kg, 6 h into the light phase, up to 3 h, mice"}, "[4]": {"conditions": "40 mg/kg i.p., 4 h post-injection, vs saline"}, "[5]": {"conditions": "40 mg/kg i.p., lights-on phase, 12-month old mice, 0-4 h post-injection, vs vehicle"}, "[6]": {"conditions": "i.p. injection, 12-month old mice"}},
  "note": "pEC50: −log10 of the molar value. Entries after “also recorded” stand apart in the source; their conditions may differ. Like-named read-outs stand apart in the source and are kept apart here.",
  "data": [
    {"compound": "Cc1ccc(Cn2c(=N)n(CC(O)c3ccc(Cl)c(Cl)c3)c3ccccc32)cc1", "note": "(stereo not shown) [compound 1]", "values": [
      {"measurement": "cytotoxicity", "setting": "[1]", "value": "OX receptor independent cytotoxicity"},
      {"measurement": "pEC50", "setting": "OX1R", "value": "< 5.49"},
      {"measurement": "pEC50", "setting": "OX2R", "value": "< 5.49"}
    ]},
    {"compound": "COc1ccc(-c2cccc(C(=O)N(C)C)c2)cc1S(=O)(=O)Nc1cccc(NCCNC(=O)c2ccccc2N(C)C)c1", "note": "[compound 2, 3’-(N-(3-((2-(2-(dimethylamino)benzamido)ethyl)amino)phenyl)sulfamoyl)-4’-methoxy-N,-N-dimethyl-[1,1’-biphenyl]-3-carboxamide]", "values": [
      {"measurement": "morphine-induced sedative effects", "setting": "rats", "value": "attenuated"},
      {"measurement": "percent time in NREM sleep", "setting": "mice; [2]", "value": "decreased"},
      {"measurement": "time in wakefulness", "setting": "mice; [2]", "value": "increased"},
      {"measurement": "sleep/wake parameters", "setting": "mice; i.p. 20 mg/kg", "value": "did not have any effect"},
      {"measurement": "percent time in NREM sleep", "setting": "mice; i.p. 40 mg/kg, mice", "value": "reduced"},
      {"measurement": "percent time in REM sleep", "setting": "mice; [3]", "value": "decreased"},
      {"measurement": "percent time in wakefulness", "setting": "mice; [3]", "value": "increased"},
      {"measurement": "wake time", "setting": "mice; i.p. 40 or 60 mg/kg", "value": "increased"},
      {"measurement": "direct transitions from wakefulness to REM sleep", "setting": "mice; i.p. 40 or 60 mg/kg, for 3 hours", "value": "decreased"},
      {"measurement": "cataplexy-like episodes", "setting": "mice; orexin knock-out and orexin neuron-ablated mice", "value": "suppressed"},
      {"measurement": "wakefulness", "setting": "mice; wild-type mice, i.c.v. 30–300 nmol and/or i.p. 40 mg/kg, hydrochloride salt", "value": "promoted wakefulness"}
    ]},
    {"compound": "CCCNC(=O)c1cccc(-c2ccc(OC)c(S(=O)(=O)Nc3cccc(NCCNC(=O)c4ccccc4N(C)C)c3)c2)c1", "note": "[compound 9, 3’-(N-(3-((2-(2-(dimethylamino)benzamido)ethyl)amino)phenyl)sulfamoyl)-4’-methoxy-N-p-ropyl-[1,1’-biphenyl]-3-carboxamide]", "values": [
      {"measurement": "agonist activity at OX1R (in words)", "setting": "human OX1R", "value": "no activity"}
    ]},
    {"compound": "COc1ccc(-c2cccc(CN(C)C)c2)cc1S(=O)(=O)Nc1cccc(NCCNC(=O)c2ccccc2N(C)C)c1", "note": "[compound 10, 2-(Dimethylamino)-N-(2-((3-((3’-((dimethylamino)methyl)-4-methoxy-[1,1’-biphenyl])-3-sulfonamido)phenyl)amino)ethyl)benzamide]", "values": [
      {"measurement": "agonist activity at OX1R (in words)", "setting": "human OX1R", "value": "no activity"}
    ]},
    {"compound": "COc1ccc(-c2cccc(C(=O)N(C)C)c2)cc1S(=O)(=O)Nc1cccc(N2CCN(C(=O)c3ccccc3N(C)C)CC2)c1", "note": "[compound 22, 3’-(N-(3-(4-(2-(dimethylamino)benzoyl)piperazin-1-yl)phenyl)sulfamoyl)-4’-methoxy-N,N-dimethyl-[1,1’-biphenyl]-3-carboxamide]", "values": [
      {"measurement": "agonist activity at OX2R (in words)", "setting": "human OX2R", "value": "all activities were lost"},
      {"measurement": "agonist activity at OX1R (in words)", "setting": "human OX1R", "value": "all activities were lost"}
    ]},
    {"compound": "COc1ccc(-c2cccc(C(=O)N(C)C)c2)cc1S(=O)(=O)Nc1cccc(N2CCN(C(=O)c3cccc(C)c3)CC2)c1", "note": "[compound 23, 4’-Methoxy-N,N-dimethyl-3’-(N-(3-(4-(3-methylbenzoyl)piperazin-1-yl)phenyl)sulfamoyl)-[1,1’-biphenyl]-3-carboxamide]", "values": [
      {"measurement": "agonist activity at OX2R (in words)", "setting": "human OX2R", "value": "all activities were lost"},
      {"measurement": "agonist activity at OX1R (in words)", "setting": "human OX1R", "value": "all activities were lost"}
    ]},
    {"compound": "COc1ccc(-c2cccc(C(=O)N(C)C)n2)cc1S(=O)(=O)Nc1cccc(NCCNC(=O)c2cccc(C)c2)c1", "note": "[compound 27, 6-(4-methoxy-3-(N-(3-((2-(3-methylbenzamido)ethyl)amino)phenyl)sulfamoyl)phenyl)-N,N-dimethylpicolinamide]", "values": [
      {"measurement": "agonist activity at OX1R (in words)", "setting": "human OX1R", "value": "full agonist"}
    ]},
    {"compound": "COc1ccc(/C=C/C(=O)N(C)C)cc1S(=O)(=O)Nc1cccc(NCCNC(=O)c2cccc(C)c2)c1", "note": "[compound 31, (E)-N-(2-((3-((5-(3-(dimethylamino)-3-oxoprop-1-en-1-yl)-2-methoxyphenyl)sulfonamido)-phenyl)amino)ethyl)-3-methylbenzamide]", "values": [
      {"measurement": "agonist activity at OX2R (in words)", "setting": "human OX2R", "value": "inactive"},
      {"measurement": "agonist activity at OX1R (in words)", "setting": "human OX1R", "value": "inactive"}
    ]},
    {"compound": "COc1ccc(CCC(=O)N(C)C)cc1S(=O)(=O)Nc1cccc(NCCNC(=O)c2cccc(C)c2)c1", "note": "[compound 32, N-(2-((3-((5-(3-(dimethylamino)-3-oxopropyl)-2-methoxyphenyl)sulfonamido)phenyl)amin-o)ethyl)-3-methylbenzamide]", "values": [
      {"measurement": "agonist activity at OX2R (in words)", "setting": "human OX2R", "value": "inactive"},
      {"measurement": "agonist activity at OX1R (in words)", "setting": "human OX1R", "value": "inactive"}
    ]},
    {"compound": "COc1ccc(-c2cccc(C(=O)NCCN(C)C)c2)cc1S(=O)(=O)Nc1cccc(NCCNC(=O)c2cccc(C)c2)c1", "note": "[compound 34, N-(2-(dimethylamino)ethyl)-4’-methoxy-3’-(N-(3-((2-(3-methylbenzamido)ethyl)amino)phenyl)sulfamoyl)-[1,1’-biphenyl]-3-carboxamide]", "values": [
      {"measurement": "agonist activity at OX1R (in words)", "setting": "human OX1R", "value": "complete loss of potency"}
    ]},
    {"compound": "COc1ccc(-c2cccc(C(=O)N(C)Cc3ccccc3)c2)cc1S(=O)(=O)Nc1cccc(NCCNC(=O)c2cccc(C)c2)c1", "note": "[compound 36, N-Benzyl-4’-methoxy-N-methyl-3’-(N-(3-((2-(3-methylbenzamido)ethyl)amino)phenyl)sulfa-moyl)-[1,1’-biphenyl]-3-carboxamide]", "values": [
      {"measurement": "agonist activity at OX1R (in words)", "setting": "human OX1R", "value": "no activity"}
    ]},
    {"compound": "COc1ccc(-c2cccc(C(=O)NCc3ccccn3)c2)cc1S(=O)(=O)Nc1cccc(NCCNC(=O)c2cccc(C)c2)c1", "note": "[compound 38, 4’-Methoxy-3’-(N-(3-((2-(3-methylbenzamido)ethyl)amino)phenyl)sulfamoyl)-N-(pyridin-2-ylmethyl)-[1,1’-biphenyl]-3-carboxamide]", "values": [
      {"measurement": "agonist activity at OX1R (in words)", "setting": "human OX1R", "value": "complete loss of the OX1R potency"}
    ]},
    {"compound": "COc1ccc(-c2cccc(C(=O)N(C)Cc3ccncc3)c2)cc1S(=O)(=O)Nc1cccc(NCCNC(=O)c2cccc(C)c2)c1", "note": "[compound 40, 4’-Methoxy-N-methyl-3’-(N-(3-((2-(3-methylbenzamido)ethyl)amino)phenyl)sulfamoyl)-N-(pyridin-4-ylmethyl)-[1,1’-biphenyl]-3-carboxamide]", "values": [
      {"measurement": "duration of NREM sleep episodes", "setting": "12-month old mice; [4]", "value": "increased"},
      {"measurement": "duration of REM sleep episodes", "setting": "12-month old mice; [4]", "value": "did not affect; also recorded: without effecting"},
      {"measurement": "duration of wake episodes", "setting": "12-month old mice; [4]", "value": "increased"},
      {"measurement": "number of NREM sleep episodes", "setting": "12-month old mice; [4]", "value": "Reduced"},
      {"measurement": "number of REM sleep episodes", "setting": "12-month old mice; [4]", "value": "fewer episodes; also recorded: reduced"},
      {"measurement": "number of state transitions", "setting": "12-month old mice; [4]", "value": "reduced"},
      {"measurement": "number of wake episodes", "setting": "12-month old mice; [4]", "value": "reduced"},
      {"measurement": "time spent in NREM sleep", "setting": "12-month old mice; [5]", "value": "reduced; also recorded: decreased"},
      {"measurement": "time spent in REM sleep", "setting": "12-month old mice; [5]", "value": "reduced; also recorded: decreased"},
      {"measurement": "time spent in wakefulness", "setting": "12-month old mice; 40 mg/kg i.p., quiet lights-on phase, 12-month old mice, 0-4 h post-injection, vs vehicle", "value": "significantly increased"},
      {"measurement": "sleep/wake consolidation", "setting": "12-month old mice; [6]", "value": "increased; also recorded: improved"},
      {"measurement": "time asleep", "setting": "12-month old mice; [6]", "value": "decreased"},
      {"measurement": "agonist activity at OX2R (in words)", "setting": "human OX2R", "value": "full agonist"},
      {"measurement": "Emax", "setting": "human OX2R; read-out: Emax at OX2R", "value": "~100", "unit": "%"},
      {"measurement": "agonist activity at OX1R (in words)", "setting": "human OX1R", "value": "full agonist"},
      {"measurement": "Emax", "setting": "human OX1R; read-out: Emax at OX1R", "value": "~100", "unit": "%"}
    ]},
    {"compound": "COc1ccc(-c2cccc(C(=O)N(C)C)c2)cc1C(=O)Nc1cccc(NCCNC(=O)c2cccc(C)c2)c1", "note": "[compound 43, 4-Methoxy-N^3’,N^3’-dimethyl-N^3-(3-((2-(3-methylbenzamido)ethyl)amino)phenyl)-[1,1’-biph-enyl]-3,3’-dicarboxamide]", "values": [
      {"measurement": "agonist activity at OX1R (in words)", "setting": "human OX1R", "value": "total loss of activity"}
    ]},
    {"compound": "COc1ccc(-c2cccc(C(=O)N(C)Cc3ccncc3)c2)cc1C(=O)Nc1cccc(NCCNC(=O)c2cccc(C)c2)c1", "note": "[compound 44, 4-Methoxy-N^3’-methyl-N^3-(3-((2-(3-methylbenzamido)ethyl)amino)phenyl)-N^3’-(pyridin-4-ylmethyl)-[1,1’-biphenyl]-3,3’-dicarboxamide]", "values": [
      {"measurement": "agonist activity at OX1R (in words)", "setting": "human OX1R", "value": "total loss of activity"}
    ]}
  ]
}
